What was measured:
Assay type in all cases: cell-based, human
[1] = tested on: K-562; test: SRB colorimetric assay of cell growth and viability, K-562; settings: 48 hours exposure; for CC50: read-out: LC50 K-562
[2] = tested on: SK-MEL-28; test: SRB colorimetric assay of cell growth and viability, SK-MEL-28; settings: 48 hours exposure; for CC50: read-out: LC50 MEL-28
[3] = tested on: PANC-1; test: SRB colorimetric assay of cell growth and viability, PANC-1; settings: 48 hours exposure; for CC50: read-out: LC50 PANC-1
[4] = tested on: A-549; test: SRB colorimetric assay of cell growth and viability, A-549; settings: 48 hours exposure; for GI50: read-out: GI50 A-549; for CC50: read-out: LC50 A-549
[5] = tested on: HT-29; test: SRB colorimetric assay of cell growth and viability, HT-29; settings: 48 hours exposure; for GI50: read-out: GI50 HT-29; for CC50: read-out: LC50 HT-29
[6] = tested on: LoVo-Dox; test: SRB colorimetric assay of cell growth and viability, LoVo-Dox; settings: 48 hours exposure; for CC50: read-out: LC50 LOVO-DOX
Summary of the method: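 Sulforhodamine B assay run after 48 h of continuous drug contact; cells seeded 5×10^3/well in RPMI 1640 10% FBS, attached 18 h. Triplicate OD490 values give cytostatic (TGI), cytotoxic (LC) and GI parameters.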

[7] = tested on: IGROV-ET; test: SRB colorimetric assay of cell growth and viability, IGROV-ET; settings: 48 hours exposure; for CC50: read-out: LC50 IGROV-ET
[8] = tested on: SK-BR-3; test: SRB colorimetric assay of cell growth and viability, SK-BR-3; settings: 48 hours exposure
[9] = tested on: LNCaP; test: SRB colorimetric assay of cell growth and viability, LNCaP; settings: 48 hours exposure; for GI50: read-out: GI50 LN-caP; for CC50: read-out: LC50 LN-caP
[10] = tested on: IGROV-1; test: SRB colorimetric assay of cell growth and viability, IGROV-1; settings: 48 hours exposure
[11] = tested on: HeLa-APL; test: SRB colorimetric assay of cell growth and viability, HeLa-APL; settings: 48 hours exposure; for CC50: read-out: LC50 HELA-APL
[12] = tested on: LoVo; test: SRB colorimetric assay of cell growth and viability, LoVo; settings: 48 hours exposure; for CC50: read-out: LC50 LOVO
[13] = tested on: DU-145; test: SRB colorimetric assay of cell growth and viability, DU-145; settings: 48 hours exposure
[14] = tested on: HeLa; test: SRB colorimetric assay of cell growth and viability, HeLa; settings: 48 hours exposure; for CC50: read-out: LC50 HELA

## C/C=C1\NC(=O)[C@H](Cc2ccccc2)NC(=O)[C@@H](C(C)C)NC(=O)[C@@H]([C@@H](C)CC)NC(=O)[C@H](NC(=O)[C@H](NC(=O)[C@H](CCCN)NC(=O)[C@H]2CCCN2C(=O)[C@H](NC(=O)[C@@H](NC(=O)[C@@H](NC(=O)[C@H](NC(=O)CCCCCCC)C(C)C)[C@@H](C)O)C(C)C)C(C)C)[C@@H](C)CC)[C@@H](C)OC(=O)[C@H](C(C)C)NC1=O [Compound 18, [Oct^14]-KF]
[1]
  GI50: 2.41 µM
  CC50: 4.02 µM
[2]
  GI50: 0.67 µM
  TGI MEL-28: 1.14E−06 Molar
  CC50: 1.68 µM
[3]
  GI50: 2.01 µM
  TGI PANC-1: 3.35E−06 Molar
  CC50: 6.03 µM
[4]
  TGI A-549: 2.82E−07 Molar
  GI50: 0.134 µM
  CC50: 1.21 µM
[5]
  TGI HT-29: 3.22E−07 Molar
  GI50: 0.201 µM
  CC50: 0.536 µM
[6]
  GI50: 0.107 µM
  TGI LOVO-DOX: 1.68E−07 Molar
  CC50: 0.335 µM
[7]
  GI50: 0.147 µM
  TGI IGROV-ET: 3.02E−07 Molar
  CC50: 2.01 µM
[8]
  GI50: 0.121 µM
  LC50: 0.536 µM
  TGI SK-BR-3: 3.02E−07 Molar
[9]
  TGI LN-caP: 1.34E−06 Molar
  GI50: 0.402 µM
  CC50: 3.35 µM
[10]
  GI50: 0.168 µM
  LC50 (concentration causing 50% net cell killing): 1.07 µM
  TGI IGROV: 3.02E−07 Molar
[11]
  GI50: 0.536 µM
  TGI HELA-APL: 1.07E−06 Molar
  CC50: 3.35 µM
[12]
  GI50: 0.188 µM
  TGI LOVO: 2.68E−07 Molar
  CC50: 0.402 µM
[13]
  GI50: 0.149 µM
  LC50 (concentration causing 50% net cell kill): 1.47 µM
  TGI DU-145: 6.70E−07 Molar
[14]
  GI50: 0.288 µM
  TGI HELA: 8.04E−07 Molar
  CC50: 1.68 µM

## C/C=C1\NC(=O)[C@H](Cc2ccccc2)NC(=O)[C@@H](C(C)C)NC(=O)[C@@H]([C@@H](C)CC)NC(=O)[C@H](NC(=O)[C@H](NC(=O)[C@H](CCCN)NC(=O)[C@H]2CCCN2C(=O)[C@H](NC(=O)[C@@H](NC(=O)[C@@H](NC(=O)[C@H](NC(=O)C(F)(F)C(F)(F)C(F)(F)C(F)(F)C(F)(F)C(F)(F)F)C(C)C)[C@@H](C)O)C(C)C)C(C)C)[C@@H](C)CC)[C@@H](C)OC(=O)[C@H](C(C)C)NC1=O [Compound 26, [Pfh^14]-KF]
[1]
  GI50: 1.33 µM
  TGI K-562: 2.33E−06 Molar
  CC50: 4.07 µM
[2]
  GI50: 0.754 µM
  TGI MEL-28: 1.50E−06 Molar
  CC50: 2.96 µM
[3]
  GI50: 2.01 µM
  TGI PANC-1: 5.50E−06 Molar
  CC50: 5.84 µM
[4]
  TGI A-549: 1.48E−06 Molar
  GI50: 0.684 µM
  CC50: 3.19 µM
[5]
  TGI HT-29: 4.55E−07 Molar
  GI50: 0.203 µM
  CC50: 1.89 µM
[6]
  GI50: 0.131 µM
  TGI LOVO-DOX: 2.52E−07 Molar
  CC50: 0.484 µM
[7]
  GI50: 0.199 µM
  TGI IGROV-ET: 5.14E−07 Molar
  CC50: 2.04 µM
[8]
  GI50: 0.144 µM
  LC50: 2.18 µM
  TGI SK-BR-3: 4.92E−07 Molar
[9]
  TGI LN-caP: 1.72E−06 Molar
  GI50: 0.9 µM
  CC50: 3.28 µM
[10]
  GI50: 0.648 µM
  LC50 (concentration causing 50% net cell killing): 3.36 µM
  TGI IGROV: 1.48E−06 Molar
[11]
  GI50: 0.455 µM
  TGI HELA-APL: 1.33E−06 Molar
  CC50: 3.52 µM
[12]
  GI50: 0.654 µM
  TGI LOVO: 1.38E−06 Molar
  CC50: 2.99 µM
[13]
  GI50: 0.596 µM
  LC50 (concentration causing 50% net cell kill): 3.35 µM
  TGI DU-145: 1.41E−06 Molar
[14]
  GI50: 0.701 µM
  TGI HELA: 1.57E−06 Molar
  CC50: 3.51 µM

— patent US20070117743A1, “New antitumoral compounds” (priority 2003, published 2007)
